Data reported in patent publication US6998503B2, “Crystalline solid form of (2S,5Z)-2-amino-7-(ethanimidoylamino)-2-methylhept-5-enoic acid” (Pharmacia Corporation, priority 2002, dated 2006).
Values joined by “and” are separate entries in the source; they are usually repeats but may differ in a detail not shown here. Equal entries are not always repeated.

What was measured:
Assay type in all cases: physicochemical
[1] = Moisture sorption by DVS moisture balance; conditions: for Desorption / Sorption (moisture gain) / Hysteresis Cycle 1: 25° C.
Description: The crystalline 2-amino-7-(ethanimidoylamino)-2-methylhept-5-enoic acid 1.5 HCl is nonhygroscopic at and below 70% relative humidity. […] At 80% R.H. the gain was 18.5%, and at 90% R.H. the gain was 76.8%. The instrument cycled back to low relative humidity and the sample was removed then examined by polarized light microscopy. The sample was fully crystalline after removal from the moisture balance, but the crystallite size had increased. […] This salt form, 1.5 HCl has no solvation.

[2] = Analysis of amorphous material (hygroscopicity note at elemental analysis); conditions: observed at elemental analysis
[3] = Solubility of the amorphate in solvents

Structure (SMILES): CC(=N)NC/C=C\CC[C@](C)(N)C(=O)O.CC(=N)NC/C=C\CC[C@](C)(N)C(=O)O.Cl.Cl.Cl [(2S,5Z)-2-amino-7-(ethanimidoylamino)-2-methylhept-5-enoic acid 1.5 HCl]
- Desorption ([1]; target RH 0.0%): 13.02%
- Sorption (moisture gain) ([1]; target RH 0.0%): 0.00%
- Sorption (moisture gain) ([1]; target RH 10.0%): 0.10%
- Desorption ([1]; target RH 20.0%): 18.93%
- Hysteresis Cycle 1 ([1]; target RH 20.0%): 18.77%
- Sorption (moisture gain) ([1]; target RH 20.0%): 0.16%
- Sorption (moisture gain) ([1]; target RH 30.0%): 0.21%
- Desorption ([1]; target RH 40.0%): 22.72%
- Hysteresis Cycle 1 ([1]; target RH 40.0%): 22.46%
- Sorption (moisture gain) ([1]; target RH 40.0%): 0.26%
- Sorption (moisture gain) ([1]; target RH 50.0%): 0.28%
- Desorption ([1]; target RH 60.0%): 33.44%
- Hysteresis Cycle 1 ([1]; target RH 60.0%): 33.16%
- Sorption (moisture gain) ([1]; target RH 60.0%): 0.27%
- Sorption (moisture gain) ([1]; target RH 70.0%): 0.91%
- Desorption ([1]; target RH 80.0%): 67.59%
- Hysteresis Cycle 1 ([1]; target RH 80.0%): 49.10%
- Sorption (moisture gain) ([1]; target RH 80.0%, HCl): 18.5% and 18.48%
- Sorption (moisture gain) ([1]; target RH 85.0%): 46.91%
- Desorption ([1]; target RH 90.0%): 76.82%
- Sorption (moisture gain) ([1]; target RH 90.0%, HCl): 76.8% and 76.82%
- hygroscopicity ([1]; at and below 70% relative humidity): nonhygroscopic

Structure (SMILES): CC(=N)NC/C=C\CCC(C)(N)C(=O)O (stereo in doubt) [(2S,5Z)-2-amino-7-(ethanimidoylamino)-2-methylhept-5-enoic acid]
- hygroscopicity [2]: (Note: Material appears to be hygroscopic - elemental
- solubility ([3]; dry solvents: acetone, MEK, methyl isobutyl ketone, THF, ethyl acetate, chloroform, methylene chloride, hexanes, cyclohexane, di-isopropyl ether, acetonitrile, toluene): less than one
- solubility ([3]; in isopropanol and solvents containing water: 10% water in THF, water saturated ethyl acetate, 10% water in acetonitrile, higher alcohols with water): soluble
- solubility ([3]; in water, methanol and ethanol): freely soluble
